Reference: US10723741B1, “DNA polymerase IIIC inhibitors and use thereof” (Acurx Pharmaceuticals, LLC, priority 2018, dated 2020)
Values after ≈ are worked out from the molar mass of the structure shown. Like-named read-outs stand apart in the source and are kept apart here.

Columns and labels:
Assay type in all cases: cell-based
[1] = tested on: Escherichia coli ATCC 25922; assay: Broth microdilution MIC, E. coli ATCC 25922 (MHIIB w & w/o 4 mM EDTA); conditions: broth microdilution, 37° C., 20 hours; for MIC: Escherichia coli, ATCC25922, without EDTA, read-out: MIC E. coli ATCC 25922; for MIC E. coli ATCC 25922 + 4 mM EDTA: with 4 mM EDTA
Outline: (§1)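 Broth microdilution in strain-specific test medium with ~5.0×10^5 cfu/ml inoculum, 1% DMSO and two-fold compound dilutions from 64 to 0.0625 μg/ml. Plates were held 20 hours at 37° C in ambient air. S. pneumoniae colonies were grown beforehand on blood agar in 5% CO2.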

[2] = tested on: Streptococcus pneumoniae ATCC 49619; assay: Broth microdilution MIC, S. pneumoniae ATCC 49619; conditions: ATCC49619, broth microdilution, 37° C., 20 hours, read-out: MIC S. pneumoniae ATCC 49619
Outline: as §1

[3] = tested on: Staphylococcus aureus NRS384 (MRSA); assay: Broth microdilution MIC, S. aureus NRS384 (MRSA); parameters: MIC NRS 384 (MRSA): unit not given here; conditions: broth microdilution, 37° C., 20 hours; for MIC: Staphylococcus aureus, read-out: MIC NRS 384 (MRSA)
Outline: as §1

[4] = tested on: Bacillus subtilis ATCC 6633; assay: Broth microdilution MIC, B. subtilis ATCC 6633; conditions: ATCC6633, broth microdilution, 37° C., 20 hours, read-out: MIC B. subtilis ATCC 6633
Outline: as §1

[5] = tested on: Staphylococcus aureus ATCC 29213 (MSSA); assay: Broth microdilution MIC, S. aureus ATCC 29213 (MSSA); conditions: broth microdilution, 37° C., 20 hours, read-out: MIC S. aureus ATCC 29213 (MSSA)
Outline: as §1

[6] = tested on: Enterococcus faecium ATCC 700221 (VRE); assay: Broth microdilution MIC, E. faecium ATCC 700221 (VRE); parameters: MIC E. faecium ATCC 700221 (VRE): unit: ug/mL; conditions: broth microdilution, 37° C., 20 hours; for MIC: Enterococcus faecium, read-out: MIC E. faecium ATCC 700221 (VRE)
Outline: as §1

[7] = tested on: Enterococcus faecalis ATCC 29212; assay: Broth microdilution MIC, E. faecalis ATCC 29212; conditions: ATCC29212, broth microdilution, 37° C., 20 hours, read-out: MIC E. faecalis ATCC 29212
Outline: as §1

SMILES | MIC [1] [µg/mL] | MIC E. coli ATCC 25922 + 4 mM EDTA [1] [µg/mL] | MIC [2] [µg/mL] | MIC [3] [µg/mL] | MIC [4] [µg/mL] | MIC [5] [µg/mL] | MIC [6] [µg/mL] | MIC [7] [µg/mL] | MIC ([3]; S. aureus NRS 384) [µg/mL] | MIC NRS 384 (MRSA) ([3]; S. aureus NRS 384) | MIC E. faecium ATCC 700221 (VRE) [6] | MIC NRS 384 (MRSA) [3]
CC(CCCn1ncc2nc(NCc3ccc(Cl)c(Cl)c3)[nH]c(=O)c21)C(=O)O (stereo not drawn) [Compound 202, 5-(5-((3,4-dichlorobenzyl)amino)-7-oxo-6,7-dihydro-1H-pyrazolo[4,3-d]pyrimidin-1-yl)-2-methylpentanoic acid] | > 64 | >64 | 8 (≈ 18.9 µM) | 32 (≈ 75.4 µM) | 32 (≈ 75.4 µM) | 32 (≈ 75.4 µM) | 16 (≈ 37.7 µM) | 32 (≈ 75.4 µM) |  |  |  | 
O=c1[nH]c(NCc2ccc(F)c(F)c2)nc2c(F)nn(CCOCCO)c12 [Compound 301, 5-((3,4-difluorobenzyl)amino)-3-fluoro-1-(2-(2-hydroxyethoxy)ethyl)-1H-pyrazolo[4,3-d]pyrimidin-7(6H)-one] | > 64 | >64 | 4 (≈ 10.4 µM) |  | 8 (≈ 20.9 µM) | 8 (≈ 20.9 µM) | 4 (≈ 10.4 µM) | 8 (≈ 20.9 µM) | 4 (≈ 10.4 µM) |  |  | 
COCCCCCn1ncc2nc(NCc3ccc(Cl)c(Cl)c3)[nH]c(=O)c21 [Compound 131, 5-((3,4-Dichlorobenzyl)amino)-1-(5-methoxypentyl)-1H-pyrazolo[4,3-d]pyrimidin-7(6H)-one] | > 64 | >64 | 4 (≈ 9.75 µM) | 2 (≈ 4.87 µM) | 1 (≈ 2.44 µM) | 2 (≈ 4.87 µM) | 2 (≈ 4.87 µM) | 4 (≈ 9.75 µM) |  |  |  | 
O=C(Cn1ncc2nc(NCc3ccc(Cl)c(Cl)c3)[nH]c(=O)c21)N1CCOCC1 [Compound 158, 5-((3,4-dichlorobenzyl)amino)-1-(2-morpholino-2-oxoethyl)-1H-pyrazolo[4,3-d]pyrimidin-7(6H)-one] | > 64 | >64 | 4 (≈ 9.15 µM) | 32 (≈ 73.2 µM) | 8 (≈ 18.3 µM) | 16 (≈ 36.6 µM) | 8 (≈ 18.3 µM) | 16 (≈ 36.6 µM) |  |  |  | 
CSCOCCOCCn1ncc2nc(NCc3ccc(Cl)c(Cl)c3)[nH]c(=O)c21 [Compound 300, 5-[(3,4-dichlorophenyl)methylamino]-1-[2-[2-(methylsulfanylmethoxy)ethoxy]ethyl]-6H-pyrazolo[4,3-d]pyrimidin-7-one] | > 64 | >64 | 4 (≈ 8.73 µM) |  | 1 (≈ 2.18 µM) | 4 (≈ 8.73 µM) |  | 8 (≈ 17.5 µM) |  | 4/4 | 2/4 | 
NC(=O)COCCn1ncc2nc(NCc3ccc(Cl)c(Cl)c3)[nH]c(=O)c21 [Compound 284, 2-[2-[5-[(3,4-dichlorophenyl)methylamino]-7-oxo-6H-pyrazolo[4,3-d]pyrimidin-1-yl]ethoxy]acetamide] | > 64 | >64 | 8 (≈ 19.5 µM) | 64 (≈ 156 µM) | 8 (≈ 19.5 µM) | 16 (≈ 38.9 µM) | 8 (≈ 19.5 µM) | 16 (≈ 38.9 µM) |  |  |  | 
O=c1[nH]c(NCc2ccc(Cl)c(Cl)c2)nc2cnn(CC3CCO3)c12 (stereo not drawn) [Compound 122, 5-((3,4-Dichlorobenzyl)amino)-1-(oxetan-2-ylmethyl)-1H-pyrazolo[4,3-d]pyrimidin-7(6H)-one] | > 64 | >64 | 4 (≈ 10.5 µM) | 2 (≈ 5.26 µM) | 1 (≈ 2.63 µM) | 2 (≈ 5.26 µM) | 2 (≈ 5.26 µM) | 4 (≈ 10.5 µM) |  |  |  | 
Cl.O=c1[nH]c(NCc2ccc(Cl)c(Cl)c2)nc2cnn(CCc3cccnc3)c12 [Compound 110, 5-((3,4-Dichlorobenzyl)amino)-1-(2-(pyridin-3-yl)ethyl)-1H-pyrazolo[4,3-d]pyrimidin-7(6H)-one hydrochloride] | > 64 | >64 | 4 |  | 1 | 4 |  | 4 |  |  | 2/2 | 2/2
O=c1[nH]c(NCc2ccc(F)c(F)c2)nc2c(Cl)nn(CCOCCO)c12 [Compound 309, 3-Chloro-5-[(3,4-difluorophenyl)methylamino]-1-[2-(2-hydroxyethoxy)ethyl]-6H-pyrazolo[4,3-d]pyrimidin-7-one] | > 64 | >64 | 8 (≈ 20 µM) |  | 8 (≈ 20 µM) | 16 (≈ 40 µM) | 16 (≈ 40 µM) | 32 (≈ 80 µM) | 16 (≈ 40 µM) |  |  | 
O=C1CCC(Cn2ncc3nc(NCc4ccc(Cl)c(Cl)c4)[nH]c(=O)c32)N1 (stereo not drawn) [Compound 93, 5-((3,4-Dichlorobenzyl)amino)-1-((5-oxopyrrolidin-2-yl)methyl)-1H-pyrazolo[4,3-d]pyrimidin-7(6H)-one] | > 64 | 64 | 2 (≈ 4.91 µM) | 16 (≈ 39.3 µM) | 4 (≈ 9.82 µM) | 8 (≈ 19.6 µM) | 4 (≈ 9.82 µM) | 8 (≈ 19.6 µM) |  |  |  | 
CN1CC(Cn2ncc3nc(NCc4ccc(Cl)c(Cl)c4)[nH]c(=O)c32)CC1=O (stereo not drawn) [Compound 159, 5-((3,4-dichlorobenzyl)amino)-1-((1-methyl-5-oxopyrrolidin-3-yl)methyl)-1H-pyrazolo[4,3-d]pyrimidin-7(6H)-one] | > 64 | >64 | 2 (≈ 4.75 µM) | 8 (≈ 19 µM) | 2 (≈ 4.75 µM) | 8 (≈ 19 µM) | 2 (≈ 4.75 µM) | 8 (≈ 19 µM) |  |  |  | 
Cc1nnc(CCn2ncc3nc(NCc4ccc(Cl)c(Cl)c4)[nH]c(=O)c32)o1 [Compound 233, 5-((3,4-dichlorobenzyl)amino)-1-(2-(5-methyl-1,3,4-oxadiazol-2-yl)ethyl)-1H-pyrazolo[4,3-d]pyrimidin-7(6H)-one] | > 64 | 64 | 2 (≈ 4.76 µM) | 4 (≈ 9.52 µM) | 2 (≈ 4.76 µM) | 4 (≈ 9.52 µM) | 2 (≈ 4.76 µM) | 4 (≈ 9.52 µM) |  |  |  | 
Cl.O=c1[nH]c(NCc2ccc(Cl)c(Cl)c2)nc2cnn(CC3CCCNC3)c12 (stereo not drawn) [Compound 154, 5-((3,4-dichlorobenzyl)amino)-1-(piperidin-3-ylmethyl)-1H-pyrazolo[4,3-d]pyrimidin-7(6H)-one hydrochloride] | > 64 | 32 | 4 | 32 | 8 | 32 | 32 | 32 |  |  |  | 
O=c1[nH]c(NCc2ccc(Cl)c(Cl)c2)nc2cnn(CC3CCOC3)c12 (stereo not drawn) [Compound 120, 5-((3,4-Dichlorobenzyl)amino)-1-((tetrahydrofuran-3-yl)methyl)-1H-pyrazolo[4,3-d]pyrimidin-7(6H)-one] | > 64 | >64 | 4 (≈ 10.1 µM) | 2 (≈ 5.07 µM) | 1 (≈ 2.54 µM) | 2 (≈ 5.07 µM) | 2 (≈ 5.07 µM) | 4 (≈ 10.1 µM) |  |  |  | 
CNCCn1ncc2nc(NCc3ccc(Cl)c(Cl)c3)[nH]c(=O)c21 [Compound 61, 5-((3,4-Dichlorobenzyl)amino)-1-(2-(methylamino)ethyl)-1H-pyrazolo[4,3-d]pyrimidin-7(6H)-one] | > 64 | >64 | 16 (≈ 43.6 µM) | 64 (≈ 174 µM) | 8 (≈ 21.8 µM) | 64 (≈ 174 µM) | 16 (≈ 43.6 µM) | 32 (≈ 87.1 µM) |  |  |  | 
